From a melting point compilation (Tetko et al.; mined from patent text by program, amines drawn as free bases though some values may be those of a salt)

Compound | melting point
CC(C)NC(=O)c1cc2[nH]cnc2c(Cl)c1NC(=O)c1cc(C(F)(F)F)nn1-c1ncccc1Cl | 200 to 203 °C
CCSc1nn2c(-c3ccccc3)nnc2c2ccccc12 | 190 to 191 °C
N#Cc1cc(C2CCCO2)nn1-c1ccc(NC(=O)c2ccncc2F)cc1 (stereo not drawn) | 160 to 162 °C
CCCCNC(=O)C(C)(C)COc1cccc2nc(C)c(C(=O)O)c(N)c12 | 195 to 199 °C
COc1nn(-c2ccc(C=O)cc2)nc1Cl | 147 to 148 °C
CCc1cccc(C)c1COc1cc(C(=O)OC)cc2c1nc(C)n2C | 157 °C
C(=Nc1ncc[nH]1)c1ccccc1 | 122 °C
Fc1cc(CC2(Cc3ccnc(F)c3)c3ccccc3-c3nccnc32)ccn1 | 119 to 120 °C
COc1cc(CO)c(OC)c2ccccc12 | 63 to 66 °C
Cc1c(SCCCSCCc2ccccc2)ccnc1CSc1ccncc1 | 48 to 50 °C
CC(=O)C(=NNc1cccc(C(F)(F)F)c1)C(C)=O | 108 to 109 °C
CC(O)(CNc1ccc(S(=O)(=O)c2ccccc2)cc1)C(F)(F)F (stereo not drawn) | 145 to 146 °C
N=C(NN)c1ccccc1C(=N)NN | 251 to 253 °C
O=C(O)c1ccc(-c2ccc3nnn(Cc4c(F)ccc(F)c4Cl)c3n2)cc1F | 211 to 213 °C
CC(Cc1c[nH]c2ccccc12)(NC(=O)OC1C2CC3CC(C2)CC1C3)C(=O)NCCc1ccco1 (stereo not drawn) | 87 to 97 °C
Cc1c(Cc2c[nH]cn2)ccc(O)c1C(N)=O | 263 °C
COC(=O)c1cc2ccccc2o1 | 53.8 to 54 °C
O=C(NNCCc1ccc(O)cc1)OCc1ccccc1 | 94 to 97 °C
CCN(CC)c1ccc(Nc2ccnc(Nc3cc(OC)c(OC)c(OC)c3)n2)cc1 | 87 °C
CCC(=O)N1Cc2c(-c3noc(C4CC4)n3)ncn2-c2ccccc21 | 175 to 176 °C
NC(=O)c1ccc(NC2CCN(Cc3ccccc3)CC2)cc1 | 192 to 193 °C
C=CCOc1cc(O)c(C=NO)c(Cl)c1 | 65 to 66 °C
COc1ccc2c(C(C)C(=O)O)cnc(Cl)c2c1 (stereo not drawn) | 167 to 168 °C
CCCCC(C)(CC)C(O)C(Oc1ccc(-c2ccccc2)cc1)n1cncn1 (stereo not drawn) | 120 to 122 °C
O=C(O)c1ccc(Oc2ccc(Cl)cc2)cc1 | 161 to 164 °C

Compound | melting point
CC(Oc1ccc(Cl)cc1[N+](=O)[O-])c1ccnc2ncnn12 (stereo not drawn) | 158 °C
N#Cc1cccc(CSc2nnc(-c3ccc4nccn4c3)o2)c1 | 175 to 176 °C
CN1C(=O)C2(COc3cc4c(cc32)OCCO4)c2c(NC(=O)NC3CCCC3)cccc21 (stereo not drawn) | 133 to 135 °C
COCCOc1ccc(C#CC2(O)CN3CCC2CC3)cc1 (stereo not drawn) | 148 to 149 °C
COc1ccc(C(=O)N2c3ccccc3C(N3CCCc4cc(NC(=O)OC(C)(C)C)ccc43)CC2C)cc1OC (stereo not drawn) | 192 to 193 °C
CCOC(=O)n1c(C(=O)c2cccc(Cl)c2)c(NC(=O)CC)c2ccc(Cl)cc21 | 189 to 191 °C
CCCCCCCCCCCc1nc(NC(=O)Nc2c(C(C)C)cccc2C(C)C)n[nH]1 | 168 to 170 °C
CCCCCn1c2ccc(C(=O)NC34CC5CC(CC(C5)C3)C4)cc2c2ccc(OC)cc21 | 141 to 142 °C
CNC(=S)n1nc(Sc2ccc(C#N)cc2)nc1N | 200 to 203 °C
Cc1cc(Cl)cc(C(=O)CC(=O)C2CCCCC2)c1O | 76 to 77 °C
COc1ccc(-c2cnc3cc4cnn(CCO)c4cc3n2)cc1F | 192 to 195 °C
CCC1C(=O)Oc2c(Oc3ccccc3C)cccc21 (stereo not drawn) | 44 to 45 °C
O=C(O)c1ccccc1C(=O)NCCCSc1ccncc1 | 151 to 153 °C
CCOC(=O)C1=Cc2cc(-c3ccc(S(C)(=O)=O)cc3)ccc2OCC1 | 150 to 153 °C
CC1(C)C(=O)Oc2ccc(C#N)cc21 | 138 to 140 °C
CC(C)(C)NCC(O)COc1ccc(-c2nc(C#N)c[nH]2)cc1 (stereo not drawn) | 174 to 177 °C
CC1c2cc(C(C)(C)C)cc(C(C)(C)C)c2O[PH](=O)Oc2c1cc(C(C)(C)C)cc2C(C)(C)C (stereo not drawn) | 209 °C
CCc1nn(CCO)c(CC)c1Oc1cc(C#N)cc(C#N)c1 | 125 °C
ON=C1CCCc2c1ccc1ccccc21 | 174 to 175 °C
COc1ccc(C(=O)Nc2ccccc2C(=O)NCCCC(=O)O)c(O)c1 | 201 to 203 °C
COc1cc(OCC(=O)N[C@@H]2CCN(Cc3ccccc3)C2)ccc1C=O | 98 to 101 °C
Cc1nc2n(c(=O)c1CCN1CCC(C(O)c3ccc(F)cc3)CC1)CCS2 (stereo not drawn) | 204 °C
CC(=O)C1=CCC2C3CCC4CC(O)C(Cl)CC4(C)C3CCC12C (stereo not drawn) | 246 to 252 °C
N=C(Nc1ccc2c(c1)C1CCCN1CC2)c1cccs1 (stereo not drawn) | 193 to 196 °C
O=C(O)CC1CCCc2c1n(Cc1ccc(Cl)cc1)c1ccc(F)cc21 (single isomer, unassigned; (-)) | 151 to 152 °C

Compound | melting point
Cn1ccc(C(Cl)Cl)n1 | 38.5 to 40 °C
CNC(=O)NNC(=S)N1N=C(c2ccc([N+](=O)[O-])cc2)c2cc3c(cc2CC1C)OCO3 (stereo not drawn) | 200 °C
N#CC(C#N)=Cc1ccc(C=O)cc1 | 142 °C
O=C(NCc1ccccn1)Nc1cc(N2CCCC2=O)ccn1 | 234 to 235 °C
CC(c1ccc(O)cc1)(c1ccc(O)cc1)C(F)(F)F | 93 to 94.5 °C
CCOC(=O)CCCn1c(C(=O)NCc2nnc(C)n2-c2sc(CC)cc2C(=O)c2ccccc2Cl)cc2cc(F)ccc21 | 127 to 128 °C
Cc1ccc(C(=O)c2cccc(C)c2N)cc1 | 77 to 78 °C
CC(C)(C)OC(=O)NCCOc1noc2ccc(F)cc12 | 104 to 105 °C
NC(=O)NN=Cc1ccc(N(c2ccccc2)c2ccccc2)cc1 | 106 to 114 °C
O=C(NO)C1(S(=O)(=O)c2ccc(OCc3ccccc3)cc2)CCN(Cc2ccccc2)CC1 | 89 °C
CN1CC=C(c2ccnc(C(=O)N(O)Cc3ccccc3)c2)CC1 | 135 to 155 °C
CC(c1ccc(-c2ccccc2)c(F)c1)c1nc(CC#N)no1 (stereo not drawn) | 111 to 112 °C
O=C1c2cccc(NC(=S)Nc3cccc4c3C3CC5(CCN3C4=O)SCCS5)c2C2CC3(CCN12)SCCS3 (stereo not drawn) | 188 °C
O=C(O)c1cn(-c2ccc(OC(F)(F)F)c(Cl)c2)cn1 | 230 to 231 °C
N#Cc1cc([N+](=O)[O-])ccc1NC(=O)C(F)(OC(F)(F)C(F)(F)C(F)(F)F)C(F)(F)F (stereo not drawn) | 96 °C
O=C([C@H](O)CS(=O)(=O)c1ccc2cc(Cl)ccc2c1)N1CCN(N2CCCCC2=O)CC1 | 198 °C
CCCCNC(=O)[C@@H](C[C@H](O)[C@@H](N)CC1CCCCC1)C(C)C | 88.5 to 90 °C
C1CCC(C2CNCCNCCNCCNCCN2)CC1 (stereo not drawn) | 67 to 69.5 °C
CCOC(=O)c1cc2ccc(C)cc2o1 | 35 to 42 °C
CN1CCN(C(=O)[C@H](CC(N)=O)NC(=O)OC(C)(C)C)CC1 | 68 to 70 °C
CS(=O)(=O)Oc1ccc2c(c1)CN(C(=O)CCCCCN1CCN(c3cccc(C(F)(F)F)c3)CC1)C2 | 109 °C
NCCNC(=S)Nc1c(Br)cccc1Br | 155 to 157 °C
CC(C)(C)OC(=O)Nc1ccc(OC2CN(C(c3ccccc3)c3ccccc3)C2)cc1 | 149 to 151 °C
